From ChEMBL document CHEMBL1140282, “1,4-Benzodiazepine-2,5-diones as small molecule antagonists of the HDM2-p53 interaction: discovery and SAR” (Bioorg Med Chem Lett, 2005)

What was measured:
[1] = biological target: Tumour suppressor p53/oncoprotein Mdm2 (Homo sapiens, UniProt Q00987); assay: Inhibition of p53-binding to HDM2 (human MDM2) by fluorescence polarization peptide displacement assay; assay type: protein assay
[2] = Dissociation constant was determined; (by measuring difference in protein melting temperature); assay type: physicochemical

Sequence of Tumour suppressor p53/oncoprotein Mdm2 (P04637 whole entry): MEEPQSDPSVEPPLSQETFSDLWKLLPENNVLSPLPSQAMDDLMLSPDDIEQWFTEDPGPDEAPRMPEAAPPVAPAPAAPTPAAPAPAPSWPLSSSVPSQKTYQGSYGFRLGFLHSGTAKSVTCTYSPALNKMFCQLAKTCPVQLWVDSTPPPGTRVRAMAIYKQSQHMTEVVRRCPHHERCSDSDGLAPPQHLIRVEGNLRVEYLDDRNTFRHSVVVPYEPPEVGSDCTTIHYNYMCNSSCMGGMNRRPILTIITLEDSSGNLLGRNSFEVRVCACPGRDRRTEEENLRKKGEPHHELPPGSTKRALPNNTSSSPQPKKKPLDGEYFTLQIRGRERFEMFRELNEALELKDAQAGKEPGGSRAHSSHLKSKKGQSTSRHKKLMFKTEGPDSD
Sequence of Tumour suppressor p53/oncoprotein Mdm2 (Q00987 whole entry): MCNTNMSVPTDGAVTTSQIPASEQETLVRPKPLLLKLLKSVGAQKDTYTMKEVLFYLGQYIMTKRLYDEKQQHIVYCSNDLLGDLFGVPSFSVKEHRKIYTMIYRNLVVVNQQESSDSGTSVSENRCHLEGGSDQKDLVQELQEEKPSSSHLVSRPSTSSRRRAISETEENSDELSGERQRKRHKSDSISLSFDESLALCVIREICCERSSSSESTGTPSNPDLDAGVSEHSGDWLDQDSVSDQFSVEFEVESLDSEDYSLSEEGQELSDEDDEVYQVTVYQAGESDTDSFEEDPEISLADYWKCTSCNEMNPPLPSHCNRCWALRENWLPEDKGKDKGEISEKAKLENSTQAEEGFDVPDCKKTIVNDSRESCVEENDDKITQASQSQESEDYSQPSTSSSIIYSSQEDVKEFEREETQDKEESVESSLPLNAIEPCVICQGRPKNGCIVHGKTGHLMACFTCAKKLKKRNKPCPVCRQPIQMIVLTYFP

SMILES | IC50 [1] | Kd [2]
O=C(O)[C@H](c1ccc(C(F)(F)F)cc1)N1C(=O)c2cc(I)ccc2NC(=O)[C@@H]1c1ccc(Cl)cc1 | 670 nM | 
O=C(O)[C@H](c1ccccc1)N1C(=O)c2cc(I)ccc2NC(=O)[C@@H]1c1ccccc1 | 38000 nM | 
CC(C)c1ccc([C@@H](C(=O)O)N2C(=O)c3cc(I)ccc3NC(=O)[C@@H]2c2ccc(Cl)cc2)cc1 | 1550 nM | 83 nM
Cc1ccc([C@H]2C(=O)Nc3ccc(I)cc3C(=O)N2[C@H](C(=O)O)c2ccccc2)cc1 | 13300 nM | 
O=C(O)[C@H](c1ccccc1)N1C(=O)c2cc(I)ccc2NC(=O)[C@@H]1c1cccc(C(F)(F)F)c1 | 45000 nM | 
O=C(O)[C@H](c1ccc(Cl)cc1)N1C(=O)c2ccc(Cl)cc2NC(=O)[C@@H]1c1ccc(Cl)cc1 | 6300 nM | 1670 nM
O=C1Nc2ccc(I)cc2C(=O)N([C@H](C(=O)O)c2ccccc2Cl)[C@H]1c1ccc(Cl)cc1 | 20000 nM | 
O=C(O)[C@H](c1ccc(Cl)cc1)N1C(=O)c2cc(CCO)ccc2NC(=O)[C@@H]1c1ccc(Cl)cc1 | 2400 nM | 
O=C(O)[C@H](c1ccc(Cl)nc1)N1C(=O)c2cc(I)ccc2NC(=O)[C@@H]1c1cc2ccccc2[nH]1 | 7900 nM | 
O=C(O)[C@H](c1ccc(Cl)nc1)N1C(=O)c2cc(I)ccc2NC(=O)[C@@H]1c1ccc(Cl)cc1 | 1470 nM | 
Cc1ccc([C@@H](C(=O)O)N2C(=O)c3cc(I)ccc3NC(=O)[C@@H]2c2ccc(Cl)cc2)cc1 | 1590 nM | 167 nM
O=C(O)[C@H](c1ccc(Cl)cc1)N1C(=O)c2cc(I)ccc2NC[C@@H]1c1ccc(Cl)cc1 | 490 nM | 
CC(C)(C)c1ccc([C@@H](C(=O)O)N2C(=O)c3cc(I)ccc3NC(=O)[C@@H]2c2ccc(Cl)cc2)cc1 | 2270 nM | 
O=C(O)[C@H](c1ccc(Cl)cc1)N1C(=O)c2ccccc2NC(=O)[C@@H]1c1ccc(Cl)cc1 | 14800 nM | 7690 nM
O=C(O)[C@H](c1ccc(Br)cc1)N1C(=O)c2cc(I)ccc2NC(=O)[C@@H]1c1ccc(Cl)cc1 | 620 nM | 83 nM
O=C(O)[C@H](c1ccc(Cl)cc1)N1C(=O)c2cc(I)ccc2NC(=O)[C@@H]1c1ccc(C(F)(F)F)cc1 | 620 nM | 
CC(C)(C)c1ccc2c(c1)C(=O)N([C@H](C(=O)O)c1ccc(Cl)cc1)[C@@H](c1ccc(Cl)cc1)C(=O)N2 | 2270 nM | 
CC(C)c1ccc2c(c1)C(=O)N([C@H](C(=O)O)c1ccc(Cl)cc1)[C@@H](c1ccc(Cl)cc1)C(=O)N2 | 1020 nM | 
CCCC[C@@H](C(=O)O)N1C(=O)c2cc(I)ccc2NC(=O)[C@@H]1c1ccc(Cl)cc1 | 14000 nM | 
O=C(O)[C@H](c1ccc(Cl)nc1)N1C(=O)c2cc(I)ccc2NC(=O)[C@@H]1c1c[nH]c2ccccc12 | 55000 nM | 
CCc1ccc2c(c1)C(=O)N([C@H](C(=O)O)c1ccc(Cl)cc1)[C@@H](c1ccc(Cl)cc1)C(=O)N2 | 1500 nM | 

SMILES | IC50 [1] | Kd [2]
O=C(O)[C@H](c1ccc(Cl)cc1)N1C(=O)c2cc(CO)ccc2NC(=O)[C@@H]1c1ccc(Cl)cc1 | 3300 nM | 
O=C(O)[C@H](c1ccccc1)N1C(=O)c2cc(I)ccc2NC(=O)[C@@H]1c1ccc(OC(F)(F)F)cc1 | 1320 nM | 
C#Cc1ccc2c(c1)C(=O)N([C@H](C(=O)O)c1ccc(Cl)cc1)[C@@H](c1ccc(Cl)cc1)C(=O)N2 | 870 nM | 250 nM
N#Cc1ccc2c(c1)C(=O)N([C@H](C(=O)O)c1ccc(Cl)cc1)[C@@H](c1ccc(Cl)cc1)C(=O)N2 | 14800 nM | 10000 nM
O=C(O)[C@H](c1ccc(Cl)cc1)N1C(=O)c2cc(Cl)ccc2NC(=O)[C@@H]1c1ccc(Cl)cc1 | 830 nM | 1530 nM
O=C(O)[C@H](c1ccc(O)cc1)N1C(=O)c2cc(I)ccc2NC(=O)[C@@H]1c1ccc(Cl)cc1 | 16500 nM | 14300 nM
CC(C)CC[C@@H](C(=O)O)N1C(=O)c2cc(I)ccc2NC(=O)[C@@H]1c1ccc(Cl)cc1 | 12000 nM | 
CCc1ccc([C@H]2C(=O)Nc3ccc(I)cc3C(=O)N2[C@H](C(=O)O)c2ccccc2)cc1 | 7500 nM | 
CC(=O)Nc1ccc2c(c1)C(=O)N([C@H](C(=O)O)c1ccc(Cl)cc1)[C@@H](c1ccc(Cl)cc1)C(=O)N2 | > 125000 nM | 
O=C1Nc2ccc(I)cc2C(=O)N([C@@H](Cc2ccccc2)C(=O)O)[C@H]1c1ccc(Cl)cc1 | 12000 nM | 
O=C(O)[C@H](c1ccc(Cl)cc1)N1C(=O)c2cc(I)c(Cl)cc2NC(=O)[C@@H]1c1ccc(Cl)cc1 | 700 nM | 167 nM
O=C(O)[C@H](c1ccccc1)N1C(=O)c2cc(I)ccc2NC(=O)[C@@H]1c1ccc(Cl)cc1 | 2500 nM | 
O=C1Nc2ccc(I)cc2C(=O)N([C@H](C(=O)O)C2CCCCC2)[C@H]1c1ccc(Cl)cc1 | 64000 nM | 
CC(C)c1ccc([C@H]2C(=O)Nc3ccc(I)cc3C(=O)N2[C@H](C(=O)O)c2ccccc2)cc1 | 18000 nM | 
O=C(O)[C@H](c1cccc(Cl)c1)N1C(=O)c2cc(I)ccc2NC(=O)[C@@H]1c1ccc(Cl)cc1 | 2700 nM | 
O=C(O)[C@H](c1ccc(Cl)cc1)N1C(=O)c2cc(I)ccc2NC(=O)[C@@H]1c1ccc(Cl)nc1 | 7400 nM | 
O=C(O)[C@H](c1ccc(Cl)cc1)N1C(=O)c2cc(Br)ccc2NC(=O)[C@@H]1c1ccc(Cl)cc1 | 830 nM | 970 nM
O=C(O)[C@H](c1ccc(Cl)cc1)N1C(=O)c2cc(I)ccc2NC(=O)[C@@H]1c1ccc(OC(F)(F)F)cc1 | 83 nM | 760 nM
O=C(O)[C@H](c1ccc(Cl)cc1)N1Cc2cc(I)ccc2NC[C@@H]1c1ccc(Cl)cc1 | > 125000 nM | 
O=C(O)[C@H](c1ccccc1)N1C(=O)c2cc(I)ccc2NC(=O)[C@@H]1c1ccccc1C(F)(F)F | > 125000 nM | 
